According to ChEMBL document CHEMBL1909046, “DrugMatrix in vitro pharmacology data”:

Assays:
[1] = target: Beta-1 adrenergic receptor (Homo sapiens, UniProt P08588); test: DRUGMATRIX: Adrenergic beta1 radioligand binding (ligand: [125I] Cyanopindolol); assay type: cell membranes, CHO-K1, Membrane; conditions: Not Active = under 50% inhibition at 10 µM
[2] = target: T1, Nitric oxide synthase, inducible (Mus musculus, UniProt P29477); set-up: species or system Escherichia coli;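 also: inhibition of iNOS enzyme activity measured with L-arginine as substrate; in other assays of this panel Not Active means under 50% inhibition at 10 µM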
T1 sequence (P29477 whole entry): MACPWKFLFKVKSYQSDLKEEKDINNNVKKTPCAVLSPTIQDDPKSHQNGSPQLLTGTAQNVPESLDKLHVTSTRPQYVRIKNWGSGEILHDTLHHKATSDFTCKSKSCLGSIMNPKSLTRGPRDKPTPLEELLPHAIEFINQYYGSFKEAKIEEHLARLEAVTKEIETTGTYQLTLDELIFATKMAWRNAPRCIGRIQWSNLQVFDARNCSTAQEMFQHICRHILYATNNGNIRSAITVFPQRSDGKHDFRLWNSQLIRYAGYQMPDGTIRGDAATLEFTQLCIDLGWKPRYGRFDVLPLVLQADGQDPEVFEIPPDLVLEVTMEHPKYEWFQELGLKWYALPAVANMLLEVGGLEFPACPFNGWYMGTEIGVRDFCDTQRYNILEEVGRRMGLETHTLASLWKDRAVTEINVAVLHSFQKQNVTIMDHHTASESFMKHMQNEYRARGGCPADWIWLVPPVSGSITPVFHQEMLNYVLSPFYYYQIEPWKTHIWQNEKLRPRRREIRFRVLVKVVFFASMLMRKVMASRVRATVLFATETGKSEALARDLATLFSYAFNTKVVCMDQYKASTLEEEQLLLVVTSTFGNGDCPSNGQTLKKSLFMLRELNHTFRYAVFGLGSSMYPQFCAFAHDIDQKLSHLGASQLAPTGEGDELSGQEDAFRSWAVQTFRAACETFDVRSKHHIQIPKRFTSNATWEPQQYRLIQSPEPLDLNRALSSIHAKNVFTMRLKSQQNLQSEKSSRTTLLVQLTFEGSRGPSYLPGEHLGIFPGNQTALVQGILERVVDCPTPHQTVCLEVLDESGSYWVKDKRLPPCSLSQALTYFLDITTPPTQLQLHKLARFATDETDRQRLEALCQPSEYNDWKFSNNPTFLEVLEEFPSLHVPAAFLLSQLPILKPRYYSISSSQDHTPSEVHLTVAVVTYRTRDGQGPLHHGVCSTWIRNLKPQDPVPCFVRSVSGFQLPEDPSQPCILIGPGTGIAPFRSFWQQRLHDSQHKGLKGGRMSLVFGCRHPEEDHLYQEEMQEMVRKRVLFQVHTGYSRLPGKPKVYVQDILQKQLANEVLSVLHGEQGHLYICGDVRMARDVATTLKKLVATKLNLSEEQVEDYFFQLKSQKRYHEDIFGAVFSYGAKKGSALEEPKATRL

[3] = target: T2, Receptor-type tyrosine-protein phosphatase C (Homo sapiens, UniProt P08575); set-up: species or system Escherichia coli;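 also: inhibition of CD45 enzyme activity measured using DiFMUP as substrate; in other assays of this panel Not Active means under 50% inhibition at 10 µM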
T2 sequence (P08575 whole entry): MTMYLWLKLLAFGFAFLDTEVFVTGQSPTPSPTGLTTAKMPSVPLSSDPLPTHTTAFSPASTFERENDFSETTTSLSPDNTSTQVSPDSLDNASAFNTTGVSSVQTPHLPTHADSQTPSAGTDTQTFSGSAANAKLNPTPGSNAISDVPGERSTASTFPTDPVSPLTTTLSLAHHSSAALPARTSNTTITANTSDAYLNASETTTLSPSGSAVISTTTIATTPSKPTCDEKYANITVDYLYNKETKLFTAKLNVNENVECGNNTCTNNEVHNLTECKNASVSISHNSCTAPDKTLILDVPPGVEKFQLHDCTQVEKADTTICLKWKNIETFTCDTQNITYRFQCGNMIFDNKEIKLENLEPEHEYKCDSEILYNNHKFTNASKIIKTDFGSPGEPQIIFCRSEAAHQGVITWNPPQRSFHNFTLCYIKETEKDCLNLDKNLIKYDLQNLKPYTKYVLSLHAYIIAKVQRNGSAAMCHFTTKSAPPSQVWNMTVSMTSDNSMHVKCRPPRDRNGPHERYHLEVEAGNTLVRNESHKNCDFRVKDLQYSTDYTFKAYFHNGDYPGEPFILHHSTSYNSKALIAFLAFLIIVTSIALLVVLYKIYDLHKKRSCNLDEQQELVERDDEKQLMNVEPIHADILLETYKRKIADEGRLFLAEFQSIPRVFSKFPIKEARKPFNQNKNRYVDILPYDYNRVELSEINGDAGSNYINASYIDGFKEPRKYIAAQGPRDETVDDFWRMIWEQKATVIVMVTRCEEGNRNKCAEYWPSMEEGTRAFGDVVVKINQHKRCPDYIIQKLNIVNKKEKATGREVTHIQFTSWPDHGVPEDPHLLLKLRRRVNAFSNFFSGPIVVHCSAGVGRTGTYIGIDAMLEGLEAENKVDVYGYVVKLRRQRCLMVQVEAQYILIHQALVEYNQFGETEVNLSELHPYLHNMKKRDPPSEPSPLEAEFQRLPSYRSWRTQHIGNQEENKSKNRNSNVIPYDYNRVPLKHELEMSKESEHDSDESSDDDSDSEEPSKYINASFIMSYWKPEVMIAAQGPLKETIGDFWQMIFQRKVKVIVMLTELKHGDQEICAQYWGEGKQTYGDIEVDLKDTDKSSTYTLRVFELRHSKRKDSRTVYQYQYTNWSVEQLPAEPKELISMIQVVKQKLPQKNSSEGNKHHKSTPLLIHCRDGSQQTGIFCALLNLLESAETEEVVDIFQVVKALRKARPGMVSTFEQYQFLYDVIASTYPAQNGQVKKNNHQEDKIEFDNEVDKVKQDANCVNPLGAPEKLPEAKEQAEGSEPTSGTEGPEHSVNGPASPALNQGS

[4] = target: T3, Neuropeptide Y receptor type 2 (Homo sapiens, UniProt P49146); assay type: cell membranes, Membrane; conditions: kan-ts; also: in other assays of this panel Not Active means under 50% inhibition at 10 µM
T3 sequence (P49146 whole entry): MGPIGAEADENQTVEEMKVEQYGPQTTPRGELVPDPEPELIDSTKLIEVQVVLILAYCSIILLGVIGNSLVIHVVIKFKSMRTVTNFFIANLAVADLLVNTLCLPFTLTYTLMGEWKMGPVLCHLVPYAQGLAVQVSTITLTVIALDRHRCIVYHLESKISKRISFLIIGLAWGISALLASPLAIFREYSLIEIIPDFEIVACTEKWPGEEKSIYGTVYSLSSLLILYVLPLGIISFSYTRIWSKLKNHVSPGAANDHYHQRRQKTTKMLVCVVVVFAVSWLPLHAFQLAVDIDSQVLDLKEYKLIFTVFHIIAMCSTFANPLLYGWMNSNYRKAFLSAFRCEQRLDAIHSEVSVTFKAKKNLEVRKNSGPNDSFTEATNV

Beta-1 adrenergic receptor, sequence (P08588 whole entry): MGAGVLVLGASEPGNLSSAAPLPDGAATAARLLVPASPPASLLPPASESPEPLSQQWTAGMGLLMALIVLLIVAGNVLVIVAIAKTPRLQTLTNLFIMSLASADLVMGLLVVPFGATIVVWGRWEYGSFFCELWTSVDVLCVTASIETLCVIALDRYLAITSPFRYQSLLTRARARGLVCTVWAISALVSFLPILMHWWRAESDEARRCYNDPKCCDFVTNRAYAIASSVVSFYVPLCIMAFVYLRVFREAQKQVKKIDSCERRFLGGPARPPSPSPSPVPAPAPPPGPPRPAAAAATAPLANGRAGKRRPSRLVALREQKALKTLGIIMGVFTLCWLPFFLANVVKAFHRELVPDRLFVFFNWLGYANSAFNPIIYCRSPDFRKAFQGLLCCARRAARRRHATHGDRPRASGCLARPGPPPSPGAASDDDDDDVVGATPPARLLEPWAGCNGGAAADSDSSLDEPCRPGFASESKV

`CN1C(=O)OC(C)(C)C1=O` [TRIMETHADIONE] was tested, and the IC50 ([1]; cho-k1) was “Not Active”, the IC50 [2] was “Not Active” and the IC50 [3] was “Not Active”. For the same compound, the IC50 [4] was “Not Active”.

With `CCC(C)(C)C(=O)O[C@H]1C[C@@H](C)C=C2C=C[C@H](C)[C@H](CC[C@@H]3C[C@@H](O)CC(=O)O3)[C@H]21` [SIMVASTATIN] the IC50 ([1]; cho-k1) was “Not Active”, the IC50 [2] was “Not Active” and the IC50 [3] was “Not Active”. For the same compound, the IC50 [4] was “Not Active”.

With `Cc1ccc(S(=O)(=O)NC(=O)NN2CCCCCC2)cc1` [TOLAZAMIDE] the IC50 ([1]; cho-k1) was “Not Active”, the IC50 [2] was “Not Active” and the IC50 [3] was “Not Active”. For the same compound, the IC50 [4] was “Not Active”.

In the case of `CC(Cl)(Cl)Cl` [TRICHLOROETHANE], the IC50 ([1]; cho-k1) is reported as “Not Active”, the IC50 [2] is reported as “Not Active” and the IC50 [3] is reported as “Not Active”. For the same compound, the IC50 [4] was “Not Active”.

With `CC(C)(C)NC[C@H](O)COc1cccc2c1CCCC2=O` [LEVOBUNOLOL] the IC50 ([1]; read-out: IC50) was 6.9 nM, the Ki ([1]; read-out: Ki) was 3.99 nM and the IC50 [2] was “Not Active”. The IC50 [3] was “Not Active” and the IC50 [4] was “Not Active”.

`CCN1CCCC1CNC(=O)c1cc(S(N)(=O)=O)ccc1OC` (stereo not given) [SULPIRIDE] was tested, and the IC50 ([1]; cho-k1) was “Not Active”, the IC50 [2] was “Not Active” and the IC50 [3] was “Not Active”. The IC50 [4] was “Not Active”.

With `Cc1cccc(C)c1NC(=O)C(C)N` (stereo not given) [TOCAINIDE] the IC50 ([1]; cho-k1) was “Not Active”, the IC50 [2] was “Not Active” and the IC50 [3] was “Not Active”. For the same compound, the IC50 [4] was “Not Active”.

In the case of `CCOC(=O)C1=C(C)NC(C)=C(C(=O)OCC)C1c1ccccc1/C=C/C(=O)OC(C)(C)C` [LACIDIPINE], the IC50 ([1]; cho-k1) is reported as “Not Active”, the IC50 [2] is reported as “Not Active” and the IC50 [3] is reported as “Not Active”. The IC50 [4] was “Not Active”.

In the case of `C=CCc1ccc2c(c1)OCO2` [SAFROLE], the IC50 ([1]; cho-k1) is reported as “Not Active”, the IC50 [2] is reported as “Not Active” and the IC50 [3] is reported as “Not Active”. The IC50 [4] was “Not Active”.

`O=C(OC[C@H]1O[C@@H](OC(=O)c2cc(O)c(O)c(OC(=O)c3cc(O)c(O)c(O)c3)c2)[C@H](OC(=O)c2cc(O)c(O)c(OC(=O)c3cc(O)c(O)c(O)c3)c2)[C@@H](OC(=O)c2cc(O)c(O)c(OC(=O)c3cc(O)c(O)c(O)c3)c2)[C@@H]1OC(=O)c1cc(O)c(O)c(OC(=O)c2cc(O)c(O)c(O)c2)c1)c1cc(O)c(O)c(OC(=O)c2cc(O)c(O)c(O)c2)c1` [TANNIC ACID] was tested, and the IC50 ([1]; cho-k1) was “Not Active”, the IC50 [2] was “Not Active” and the IC50 [3] was “Not Active”. For the same compound, the IC50 [4] was “Not Active”.

`CO[C@@]12[C@H](COC(N)=O)C3=C(C(=O)C(C)=C(N)C3=O)N1C[C@@H]1N[C@@H]12` [MITOMYCIN] was tested, and the IC50 ([1]; cho-k1) was “Not Active”, the IC50 [2] was “Not Active” and the IC50 [3] was “Not Active”. For the same compound, the IC50 [4] was “Not Active”.

For `CN1C[C@H](CNC(=O)OCc2ccccc2)C[C@@H]2c3cccc4c3c(cn4C)C[C@H]21` [METERGOLINE], the IC50 ([1]; cho-k1) was “Not Active”, the IC50 [2] was “Not Active” and the IC50 [3] was “Not Active”. The IC50 [4] was “Not Active”.

For `Cc1[nH]c(=O)c(C#N)cc1-c1ccncc1` [MILRINONE], the IC50 ([1]; cho-k1) was “Not Active”, the IC50 [2] was “Not Active” and the IC50 [3] was “Not Active”. The IC50 [4] was “Not Active”.

`O=C1CC[C@@]2(O)[C@H]3Cc4ccc(O)c5c4[C@@]2(CCN3CC2CC2)[C@H]1O5` [NALTREXONE] was tested, and the IC50 ([1]; cho-k1) was “Not Active”, the IC50 [2] was “Not Active” and the IC50 [3] was “Not Active”. For the same compound, the IC50 [4] was “Not Active”.

With `COC(=O)Nc1nc2ccc(C(=O)c3ccccc3)cc2[nH]1` [MEBENDAZOLE] the IC50 ([1]; cho-k1) was “Not Active”, the IC50 [2] was “Not Active” and the IC50 [3] was “Not Active”. For the same compound, the IC50 [4] was “Not Active”.

With `CC(=O)O[C@]1(C(C)=O)CC[C@H]2[C@@H]3C[C@H](C)C4=CC(=O)CC[C@]4(C)[C@H]3CC[C@@]21C` [MEDROXYPROGESTERONE ACETATE] the IC50 ([1]; cho-k1) was “Not Active”, the IC50 [2] was “Not Active” and the IC50 [3] was “Not Active”. The IC50 [4] was “Not Active”.

For `Cc1cn([C@H]2C=C[C@@H](CO)O2)c(=O)[nH]c1=O` [STAVUDINE], the IC50 ([1]; cho-k1) was “Not Active”, the IC50 [2] was “Not Active” and the IC50 [3] was “Not Active”. The IC50 [4] was “Not Active”.

`Cc1cnc(NC(=O)C2=C(O)c3ccccc3S(=O)(=O)N2C)s1` [MELOXICAM] was tested, and the IC50 ([1]; cho-k1) was “Not Active”, the IC50 [2] was “Not Active” and the IC50 [3] was “Not Active”. The IC50 [4] was “Not Active”.

For `CC(O)C(=O)O` (stereo not given) [LACTIC ACID], the IC50 ([1]; cho-k1) was “Not Active”, the IC50 [2] was “Not Active” and the IC50 [3] was “Not Active”. The IC50 [4] was “Not Active”.

`C1CCN2C[C@@H]3C[C@@H](CN4CCCC[C@@H]34)[C@H]2C1` [SPARTEINE] was tested, and the IC50 ([1]; cho-k1) was “Not Active”, the IC50 [2] was “Not Active” and the IC50 [3] was “Not Active”. For the same compound, the IC50 [4] was “Not Active”.

`CC(N)C12CC3CC(CC(C3)C1)C2` (stereo not given) [RIMANTADINE] was tested, and the IC50 ([1]; cho-k1) was “Not Active”, the IC50 [2] was “Not Active” and the IC50 [3] was “Not Active”. The IC50 [4] was “Not Active”.
